Test results reported in PubChem BioAssay AID434987 (Southern Research Specialized Biocontainment Screening …, 2010).
Activity calls are given as the source filed them. How the calls were made is not given here.

System: M. tuberculosis H37Rv growth inhibition with meropenem
Assay: dose response, H37Rv, with and without meropenem (AID 434987);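 further: growth over 7 days at 37 °C before Alamar Blue read on day 9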
[1] = M. tuberculosis H37Rv growth inhibition, measured here: IC50 without meropenem
[2] = M. tuberculosis H37Rv growth inhibition, measured here: IC90 without meropenem
[3] = measured here: IC90 with meropenem

Cc1cc(NC(=O)c2ccc3c(c2)OCCO3)ccc1NC(=O)c1cc2ccccc2o1
IC50: 76.3 µM (inactive)
IC50 [1]: > 100 µM
IC90 [2]: > 100 µM
IC90 [3]: > 100 µM

NNC(=S)Nc1ccc(C(F)(F)F)cc1Cl
IC50: > 100 µM (inactive)
IC50 [1]: > 100 µM
IC90 [2]: > 100 µM
IC90 [3]: > 100 µM

CC1CCCN(C(=O)C2CCN(c3ncnc4c3nc3n4CCCCC3)CC2)C1 (centres undefined)
IC50: 46.7 µM (inactive)
IC50 [1]: 89.8 µM
IC90 [2]: > 100 µM
IC90 [3]: 49.7 µM

CCCC(C(=O)N1CCOCC1)N1C(=O)C2C3C=CC(C3)C2C1=O (centres undefined)
IC50: > 100 µM (inactive)
IC50 [1]: > 100 µM
IC90 [2]: > 100 µM
IC90 [3]: > 100 µM

O=C(Nc1ccccc1N1CCCC1)c1ccc2c(c1)OCO2
IC50: 72.3 µM (inactive)
IC50 [1]: 87.3 µM
IC90 [2]: > 100 µM
IC90 [3]: > 100 µM

Cc1[nH]n(-c2ccccc2)c(=O)c1/C=N/NC(=O)c1ccoc1C
IC50: 0.655 µM
IC50 [1]: > 100 µM
IC90 [2]: > 100 µM
IC90 [3]: 3.01 µM

Cc1ccc(NC(=O)O/N=C/c2c(C)nn(C(C)(C)C)c2C)cc1Cl
IC50: > 100 µM (inactive)
IC50 [1]: > 100 µM
IC90 [2]: > 100 µM
IC90 [3]: > 100 µM

CN(C)S(=O)(=O)n1cc(/C=C(\NC(=O)c2ccccc2)C(=O)NCCN2CCOCC2)c2ccccc21
IC50: > 100 µM (inactive)
IC50 [1]: > 100 µM
IC90 [2]: > 100 µM
IC90 [3]: > 100 µM

COc1cccc(NC(=O)C(=O)c2cn(CC(=O)N3CCOCC3)c3ccccc23)c1
IC50: > 100 µM (inactive)
IC50 [1]: > 100 µM
IC90 [2]: > 100 µM
IC90 [3]: > 100 µM

COc1ccc(S(=O)(=O)N(C(=O)c2ccncc2)c2ccc3oc4c(c3c2)CCCC4)cc1
IC50: 99 µM (inactive)
IC50 [1]: 94.7 µM
IC90 [2]: > 100 µM
IC90 [3]: > 100 µM

CCCCOc1ccc(C(=O)Oc2cccnc2)cc1
IC50: 19.5 µM
IC50 [1]: > 100 µM
IC90 [2]: > 100 µM
IC90 [3]: > 100 µM

COc1ccc2c(c1)c(CC(=O)Nc1ccc(C)cc1)c(C)n2C(=O)c1ccc(Cl)cc1
IC50: > 100 µM (inactive)
IC50 [1]: > 100 µM
IC90 [2]: > 100 µM
IC90 [3]: > 100 µM

CCOC(=O)c1c(C)[nH]c(C(=O)COC(=O)CCC2CCCC2)c1C
IC50: > 100 µM (inactive)
IC50 [1]: > 100 µM
IC90 [2]: > 100 µM
IC90 [3]: > 100 µM

COc1nc(-c2ccccc2)ccc1-c1noc(-c2cccnc2)n1
IC50: > 100 µM (inactive)
IC50 [1]: > 100 µM
IC90 [2]: > 100 µM
IC90 [3]: > 100 µM

COc1ccc([N+](=O)[O-])cc1NS(=O)(=O)c1ccc(C(=O)N2CCCC2)cc1
IC50: > 100 µM (inactive)
IC50 [1]: > 100 µM
IC90 [2]: > 100 µM
IC90 [3]: > 100 µM

Cc1cc(/C=N/NC(=O)CC#N)c(C)n1-c1ccc([N+](=O)[O-])cc1
IC50: 10.2 µM
IC50 [1]: > 100 µM
IC90 [2]: > 100 µM
IC90 [3]: > 100 µM

C=C(C)COc1ccc2c(C)c(C)c(=O)oc2c1OCC(=C)C
IC50: 79.2 µM (inactive)
IC50 [1]: > 100 µM
IC90 [2]: > 100 µM
IC90 [3]: > 100 µM

O=C(/C=C/c1ccccc1)NC1CC2CCC1C2 (centres undefined)
IC50: > 100 µM (inactive)
IC50 [1]: > 100 µM
IC90 [2]: > 100 µM
IC90 [3]: > 100 µM

Cc1cc(C)c(C)c(S(=O)(=O)N2C(=S)NC(=O)C2C(C)C)c1C (centres undefined)
IC50: 10.1 µM
IC50 [1]: 38.5 µM
IC90 [2]: > 100 µM
IC90 [3]: > 100 µM

C=CCC(Nc1ccccc1)C12C=CC(O1)C(C(=O)OC)=C2C(=O)OC (centres undefined)
IC50: > 100 µM (inactive)
IC50 [1]: > 100 µM
IC90 [2]: > 100 µM
IC90 [3]: > 100 µM

Cc1ccc2c(c1)CCCN2C(=O)c1cc2ccccc2oc1=O
IC50: 22.9 µM
IC50 [1]: > 100 µM
IC90 [2]: > 100 µM
IC90 [3]: > 25 µM

CCN(CC)c1ccc(CN2CCCCCC2)cc1
IC50: 43.6 µM (inactive)
IC50 [1]: 48.1 µM
IC90 [2]: > 100 µM
IC90 [3]: 49.4 µM

CCOc1ccc(-c2nnc(-c3cccs3)o2)cc1OCC
IC50: > 100 µM (inactive)
IC50 [1]: > 100 µM
IC90 [2]: > 100 µM
IC90 [3]: > 100 µM

O=C(Cn1c(=O)n(CCCC(=O)NC2CCCC2)c(=O)c2ccccc21)NCCC1=CCCCC1
IC50: > 100 µM (inactive)
IC50 [1]: > 100 µM
IC90 [2]: > 100 µM
IC90 [3]: > 100 µM

Cc1ccn2c(CNCCn3nc(C)cc3C)c(C(=O)N3CCCCCC3)nc2c1
IC50: > 100 µM (inactive)
IC50 [1]: > 100 µM
IC90 [2]: > 100 µM
IC90 [3]: > 100 µM

CCN(CC)C(=O)C1CCCN(c2ccc([N+](=O)[O-])cc2/C=N/NC(=O)c2cccc([N+](=O)[O-])c2)C1 (centres undefined)
IC50: > 100 µM (inactive)
IC50 [1]: > 100 µM
IC90 [2]: > 100 µM
IC90 [3]: > 100 µM

O=C(NCC(c1ccco1)N1CCc2ccccc21)c1ccc([N+](=O)[O-])cc1 (centres undefined)
IC50: > 100 µM (inactive)
IC50 [1]: > 100 µM
IC90 [2]: > 100 µM
IC90 [3]: > 100 µM

CSc1nsc(SC)c1NC(=O)OCc1ccccc1
IC50: 32.3 µM
IC50 [1]: > 100 µM
IC90 [2]: > 100 µM
IC90 [3]: > 100 µM

O=C(Cc1ccccc1Cl)Nc1nc2ccccc2[nH]1
IC50: 9.31 µM
IC50 [1]: > 100 µM
IC90 [2]: > 100 µM
IC90 [3]: > 25 µM

CCC(=O)NC(=S)Nc1ccc(-c2nc3ccccc3s2)cc1
IC50: > 100 µM (inactive)
IC50 [1]: > 100 µM
IC90 [2]: > 100 µM
IC90 [3]: > 100 µM

O=C(OCC(=O)N1CCc2ccccc21)c1ccc(Cl)nc1
IC50: 22.8 µM (inactive)
IC50 [1]: 44 µM
IC90 [2]: > 100 µM
IC90 [3]: > 100 µM

NS(=O)(=O)c1cccnc1Nc1c(Cl)cccc1Cl
IC50: > 100 µM (inactive)
IC50 [1]: > 100 µM
IC90 [2]: > 100 µM
IC90 [3]: > 100 µM

O=C(Nc1cccc(S(=O)(=O)NCc2ccco2)c1)c1cc(-c2ccc(F)cc2)nc2ccccc12
IC50: 97.4 µM (inactive)
IC50 [1]: > 100 µM
IC90 [2]: > 100 µM
IC90 [3]: > 100 µM

CCOC(=O)c1ccc(C(=O)NNC(=O)C2CC=CCC2)cc1 (centres undefined)
IC50: 8.57 µM (inactive)
IC50 [1]: 20.9 µM
IC90 [2]: 31.9 µM
IC90 [3]: 40 µM

O=S1(=O)CCO[C@H]2Cc3ccccc3[C@H]2N1Cc1ccc(Cl)cc1
IC50: > 100 µM (inactive)
IC50 [1]: > 100 µM
IC90 [2]: > 100 µM
IC90 [3]: > 100 µM

CCOC(=O)c1c(NC(=O)COC(=O)c2ncc(Cl)c(Cl)c2Cl)sc(C(=O)N(C)C)c1C
IC50: 24.8 µM (inactive)
IC50 [1]: 47.3 µM
IC90 [2]: 53.4 µM
IC90 [3]: 27.7 µM

CC(C)(C)[C@@H]1C=C(C(=O)Nc2ccccc2)O[C@H](OCc2ccc(CO)cc2)C1
IC50: 75 µM (inactive)
IC50 [1]: 93.1 µM
IC90 [2]: > 100 µM
IC90 [3]: > 100 µM

CC(C)Oc1ccc(N2CC(C(=O)Nc3ccccc3F)CC2=O)cc1 (centres undefined)
IC50: 56.8 µM (inactive)
IC50 [1]: > 100 µM
IC90 [2]: > 100 µM
IC90 [3]: > 100 µM

S=C(NNc1ccc2ccccc2c1)NC1CCCCC1
IC50: 8.86 µM (inactive)
IC50 [1]: 20.4 µM
IC90 [2]: 46.7 µM
IC90 [3]: 41.3 µM

O=C(OC(C(=O)Nc1ccc(Cl)cc1C(F)(F)F)c1ccccc1)C1=COCCO1 (centres undefined)
IC50: 1.23 µM
IC50 [1]: > 100 µM
IC90 [2]: > 100 µM
IC90 [3]: > 100 µM

CC(/C=N/NC(=O)c1cc(C(C)(C)C)[nH]n1)=C\c1ccccc1
IC50: > 100 µM (inactive)
IC50 [1]: > 100 µM
IC90 [2]: > 100 µM
IC90 [3]: > 100 µM
